Measurements reported in ChEMBL document CHEMBL5113532, “Design and Characterization of a Natural Arf-GEFs Inhibitor Prodrug CHNQD-01255 with Potent Anti-Hepatocellular Carcinoma Efficacy In Vivo” (J Med Chem, 2022).
pIC50: −log10 of the molar value. ≈ marks a conversion by molar mass, not a printed value.

Tests used:
HepG2 = experiment: Antiproliferative activity against human HepG2 cells by MTT assay; format: functional, cell-based
Bel-7402 = experiment: Antiproliferative activity against human Bel-7402 cells by MTT assay; format: functional, cell-based
[1] = Clearance in ICR mouse at 10 mg/kg, iv measured after 0.083 to 12 hrs by UPLC-MS/MS analysis; format: ADME, organism-based; settings: in vivo, time 0.083-12 hrs
[2] = Apparent volume of distribution in ICR mouse at 10 mg/kg, iv measured after 0.083 to 12 hrs by UPLC-MS/MS analysis; format: ADME, organism-based; settings: in vivo, time 0.083-12 hrs, read-out: Vz
[3] = Solubility of the compound in saline/DMSO (95/5% V/V) at pH 7.4; format: physicochemical
[4] = Solubility of the compound in saline/PEG400 (95/5% V/V) at pH 7.4; format: physicochemical
[5] = Solubility of the compound in 0.9% NaCl at pH 7.4; format: physicochemical
[6] = Solubility of the compound in saline/DMSO/solutol HS-15 (85/5/10% V/V/V) at pH 7.4; format: physicochemical
[7] = Solubility of the compound in PBS/DMSO (95/5% V/V) at pH 7.2 to 7.4; format: physicochemical
[8] = MRT (0 to t) in ICR mouse at 45 mg/kg, po measured after 0.083 to 12 hrs by UPLC-MS/MS analysis; format: ADME, organism-based; settings: in vivo, time 0.083-12 hrs
[9] = Solubility of the compound in saline/PEG400 (80/20% V/V) at pH 7.4; format: physicochemical
[10] = Acute toxicity in po dosed ICR mouse assessed as maximum tolerated dose; format: organism-based; settings: in vivo
[11] = AUC (0 to t) in ICR mouse at 45 mg/kg, po measured after 0.083 to 12 hrs by UPLC-MS/MS analysis; format: ADME, organism-based; set-up: dose 45 mg/kg, time upper 12 hrs, time lower 0.083 hrs, route po; settings: in vivo
[12] = Half life in ICR mouse at 10 mg/kg, iv measured after 0.083 to 12 hrs by UPLC-MS/MS analysis; format: ADME, organism-based; settings: in vivo, time 0.083-12 hrs
[13] = Solubility of the compound in saline/solutol HS-15 (95/5% V/V) at pH 7.4; format: physicochemical
[14] = Acute toxicity in ip dosed ICR mouse assessed as maximum tolerated dose; format: organism-based; settings: in vivo
[15] = Apparent volume of distribution in ICR mouse at 45 mg/kg, po measured after 0.083 to 12 hrs by UPLC-MS/MS analysis; format: ADME, organism-based; settings: in vivo, time 0.083-12 hrs
[16] = Clearance in ICR mouse at 45 mg/kg, po measured after 0.083 to 12 hrs by UPLC-MS/MS analysis; format: ADME, organism-based; settings: in vivo, time 0.083-12 hrs
[17] = Solubility of the compound in saline/solutol HS-15 (90/10% V/V) at pH 7.4; format: physicochemical
[18] = Half life in ICR mouse at 45 mg/kg, po measured after 0.083 to 12 hrs by UPLC-MS/MS analysis; format: ADME, organism-based; settings: in vivo, time 0.083-12 hrs
[19] = MRT (0 to t) in ICR mouse at 10 mg/kg, iv measured after 0.083 to 12 hrs by UPLC-MS/MS analysis; format: ADME, organism-based; settings: in vivo, time 0.083-12 hrs
[20] = Cmax in ICR mouse at 45 mg/kg, po measured after 0.083 to 12 hrs by UPLC-MS/MS analysis; format: ADME, organism-based; set-up: dose 45 mg/kg, time upper 12 hrs, time lower 0.083 hrs, route po; settings: in vivo
[21] = Cmax in ICR mouse at 10 mg/kg, iv measured after 0.083 to 12 hrs by UPLC-MS/MS analysis; format: ADME, organism-based; set-up: time 0.083-12 hrs, dose 10 mg/kg, route iv; settings: in vivo
[22] = AUC(0 to t) in ICR mouse at 10 mg/kg, iv measured after 0.083 to 12 hrs by UPLC-MS/MS analysis; format: ADME, organism-based; set-up: time upper 12 hrs, dose 10 mg/kg, time lower 0.083 hrs, route iv; settings: in vivo
[23] = Oral bioavailability in ICR mouse at 45 mg/kg measured after 0.083 to 12 hrs by UPLC-MS/MS analysis; format: ADME, organism-based; settings: in vivo, time 0.083-12 hrs

Compound: COC(=O)O[C@@H]1C[C@H]2[C@H](O)/C=C/C(=O)O[C@@H](C)CCC/C=C/[C@@H]2C1
- pIC50 (HepG2): < 6.00

Compound: C[C@H]1CCC/C=C/[C@@H]2C[C@H](OC(=O)NCc3ccncc3)C[C@H]2[C@H](O)/C=C/C(=O)O1
- pIC50 (HepG2): < 6.00

Compound: C[C@H]1CCC/C=C/[C@@H]2C[C@H](OC(=O)OCc3ccccn3)C[C@H]2[C@H](O)/C=C/C(=O)O1
- pIC50 (HepG2): < 6.00

Compound: Cc1cncc(C(=O)O[C@@H]2/C=C/C(=O)O[C@@H](C)CCC/C=C/[C@@H]3C[C@H](O)C[C@H]32)c1
- pIC50 (HepG2): < 6.00

Compound: C[C@H]1CCC/C=C/[C@@H]2C[C@H](OC(=O)Nc3ccccc3)C[C@H]2[C@H](O)/C=C/C(=O)O1
- pIC50 (HepG2): < 6.00

Compound: C[C@H]1CCC/C=C/[C@@H]2C[C@H](OC(=O)OCc3cncc(F)c3)C[C@H]2[C@H](O)/C=C/C(=O)O1
- pIC50 (HepG2): < 6.00

Compound: C[C@H]1CCC/C=C/[C@@H]2C[C@H](OC(=O)OCc3cccnc3)C[C@H]2[C@H](OC(=O)OCc2cccnc2)/C=C/C(=O)O1
- pIC50 (Bel-7402): 6.37
- pIC50 (HepG2): < 6.00

Compound: C[C@H]1CCC/C=C/[C@@H]2C[C@H](OC(=O)OCCS)C[C@H]2[C@H](O)/C=C/C(=O)O1
- pIC50 (HepG2): < 6.00

Compound: C[C@H]1CCC/C=C/[C@@H]2C[C@H](OC(=O)c3ccccn3)C[C@H]2[C@H](O)/C=C/C(=O)O1
- pIC50 (HepG2): 6.54

Compound: C[C@H]1CCC/C=C/[C@@H]2C[C@H](OC(=O)c3ccncc3)C[C@H]2[C@H](OC(=O)c2ccncc2)/C=C/C(=O)O1
- pIC50 (HepG2): < 6.00

Compound: C[C@H]1CCC/C=C/[C@@H]2C[C@H](O)C[C@H]2[C@H](OC(=O)c2cncc(F)c2)/C=C/C(=O)O1
- pIC50 (HepG2): 6.03

Compound: C[C@H]1CCC/C=C/[C@@H]2C[C@H](O)C[C@H]2[C@H](OC(=O)c2ccccn2)/C=C/C(=O)O1
- pIC50 (HepG2): 6.02

Compound: COc1cccc2c1C(=O)c1c(O)c3c(c(O)c1C2=O)C[C@@](O)(C(=O)CO)C[C@@H]3O[C@H]1C[C@H](N)[C@H](O)[C@H](C)O1 [DOXORUBICIN]
- pIC50 (Bel-7402): < 6.00
- pIC50 (HepG2): 6.41

Compound: C[C@H]1CCC/C=C/[C@@H]2C[C@H](OC(=O)c3cccnc3)C[C@H]2[C@H](OC(=O)c2cccnc2)/C=C/C(=O)O1
- pIC50 (Bel-7402): < 6.00
- pIC50 (HepG2): < 6.00

Compound: C[C@H]1CCC/C=C/[C@@H]2C[C@H](OC(=O)NCCO)C[C@H]2[C@H](O)/C=C/C(=O)O1
- pIC50 (HepG2): < 6.00

Compound: C[C@H]1CCC/C=C/[C@@H]2C[C@H](O)C[C@H]2[C@H](OC(=O)c2cccnc2)/C=C/C(=O)O1
- pIC50 (Bel-7402): 6.57
- pIC50 (HepG2): < 6.00

Compound: Cc1cncc(C(=O)O[C@@H]2C[C@H]3[C@H](O)/C=C/C(=O)O[C@@H](C)CCC/C=C/[C@@H]3C2)c1
- pIC50 (HepG2): < 6.00

Compound: C[C@H]1CCC/C=C/[C@@H]2C[C@H](OC(=O)NCc3ccccc3)C[C@H]2[C@H](O)/C=C/C(=O)O1
- pIC50 (HepG2): < 6.00

Compound: C[C@H]1CCC/C=C/[C@@H]2C[C@H](OC(=O)OCCSSCCO)C[C@H]2[C@H](O)/C=C/C(=O)O1
- pIC50 (HepG2): < 6.00

Compound: C[C@H]1CCC/C=C/[C@@H]2C[C@H](OC(=O)OCCc3cccnc3)C[C@H]2[C@H](O)/C=C/C(=O)O1
- pIC50 (Bel-7402): < 6.00
- pIC50 (HepG2): 6.07

Compound: C[C@H]1CCC/C=C/[C@@H]2C[C@H](OC(=O)c3cncc(F)c3)C[C@H]2[C@H](O)/C=C/C(=O)O1
- pIC50 (HepG2): 6.17

Compound: C[C@H]1CCC/C=C/[C@@H]2C[C@H](OC(=O)OCc3ccncc3)C[C@H]2[C@H](O)/C=C/C(=O)O1
- pIC50 (Bel-7402): < 6.00
- pIC50 (HepG2): < 6.00

Compound: C[C@H]1CCC/C=C/[C@@H]2C[C@H](OC(=O)CN(C)C)C[C@H]2[C@H](O)/C=C/C(=O)O1
- pIC50 (Bel-7402): < 6.00
- pIC50 (HepG2): < 6.00

Compound: C[C@H]1CCC/C=C/[C@@H]2C[C@H](OC(=O)c3cncc(F)c3)C[C@H]2[C@H](OC(=O)c2cncc(F)c2)/C=C/C(=O)O1
- pIC50 (HepG2): < 6.00

Compound: C[C@H]1CCC/C=C/[C@@H]2C[C@H](OC(=O)NCc3cccnc3)C[C@H]2[C@H](O)/C=C/C(=O)O1
- pIC50 (HepG2): < 6.00

Compound: C[C@H]1CCC/C=C/[C@@H]2C[C@H](OC(=O)OCc3cnc4ccccc4c3)C[C@H]2[C@H](O)/C=C/C(=O)O1
- pIC50 (HepG2): < 6.00

Compound: C[C@H]1CCC/C=C/[C@@H]2C[C@H](O)C[C@H]2[C@H](OC(=O)c2ccncc2)/C=C/C(=O)O1
- pIC50 (HepG2): 6.19

Compound: C[C@H]1CCC/C=C/[C@@H]2C[C@H](O)C[C@H]2[C@H](OC(=O)OCc2cccnc2)/C=C/C(=O)O1
- pIC50 (Bel-7402): 6.57
- pIC50 (HepG2): < 6.00

Compound: C[C@H]1CCC/C=C/[C@@H]2C[C@H](OC(=O)c3ccncc3)C[C@H]2[C@H](O)/C=C/C(=O)O1
- pIC50 (HepG2): 6.34

Compound: C[C@H]1CCC/C=C/[C@@H]2C[C@H](O)C[C@H]2[C@H](O)/C=C/C(=O)O1 [BREFELDIN A]
- clearance [1]: 26.3 mL/min/kg
- Vd [2]: 20.6 L/kg
- solubility [3]: < 1000 µg/mL
- solubility [4]: < 1000 µg/mL
- solubility [5]: < 1000 µg/mL
- pIC50 (Bel-7402): 7.15
- solubility [6]: 1000 µg/mL (≈ 3.57 mM)
- solubility [7]: < 1000 µg/mL
- MRT last [8]: 1.4 h
- solubility [9]: < 1000 µg/mL
- MTD [10]: < 506 mg/kg
- AUC(0-t) [11]: 4130 ng·h/mL
- half-life [12]: 9.05 h
- solubility [13]: < 1000 µg/mL
- MTD [14]: < 50 mg/kg
- Vz [15]: 31.87132 L/kg
- CL/F [16]: 173 mL/min/kg
- solubility [17]: < 1000 µg/mL
- half-life [18]: 2.12 h
- MRT last [19]: 0.84 h
- Cmax [20]: 7140 ng/mL
- Cmax [21]: 13200 ng/mL
- pIC50 (HepG2): 7.10
- AUC(0-t) [22]: 4840 ng·h/mL
- bioavailability [23]: 19%

Compound: C[C@H]1CCC/C=C/[C@@H]2C[C@H](OC(=O)c3cccnc3)C[C@H]2[C@H](O)/C=C/C(=O)O1
- solubility [3]: < 1000 µg/mL
- solubility [4]: < 1000 µg/mL
- solubility [5]: < 1000 µg/mL
- pIC50 (Bel-7402): 6.41
- solubility [6]: 3000 µg/mL (≈ 7.78 mM)
- solubility [7]: < 1000 µg/mL
- solubility [9]: < 1000 µg/mL
- solubility [13]: < 1000 µg/mL
- solubility [17]: < 1000 µg/mL
- pIC50 (HepG2): 6.02

Compound: COc1ccc(COC(=O)O[C@@H]2C[C@H]3[C@H](O)/C=C/C(=O)O[C@@H](C)CCC/C=C/[C@@H]3C2)cn1
- pIC50 (HepG2): < 6.00

Compound: C[C@H]1CCC/C=C/[C@@H]2C[C@H](OC(=O)c3ccccn3)C[C@H]2[C@H](OC(=O)c2ccccn2)/C=C/C(=O)O1
- pIC50 (HepG2): 6.47
